Where a SMILES comes first, the peptide text is derived from it. Bridges are numbered along the chain shown (N, C = ends). [ ]: non-standard residue; d: D form. The star is where a group is joined. ξ: configuration not given here. Phe(4-CONH2) = NC(=O)c1ccc(C[C@H](N)C(=O)O)cc1; Phe(4-COOH) = N[C@@H](Cc1ccc(C(=O)O)cc1)C(=O)O; Bip = N[C@@H](Cc1ccc(-c2ccccc2)cc1)C(=O)O; Ala(2-furyl) = N[C@@H](Cc1ccco1)C(=O)O; Phe(3-Me) = Cc1cccc(C[C@H](N)C(=O)O)c1; Val(3-OH) = CC(C)(O)[C@H](N)C(=O)O; 4Pal = N[C@@H](Cc1ccncc1)C(=O)O; Cha = N[C@@H](CC1CCCCC1)C(=O)O; Cit = NC(=O)NCCC[C@H](N)C(=O)O; Thr(3ξ) = CC(O)[C@H](N)C(=O)O; Carboxymethyl = O=C(O)C*; Orn = NCCC[C@H](N)C(=O)O; Dab = NCC[C@H](N)C(=O)O

T1 sequence (Q15116 25-288): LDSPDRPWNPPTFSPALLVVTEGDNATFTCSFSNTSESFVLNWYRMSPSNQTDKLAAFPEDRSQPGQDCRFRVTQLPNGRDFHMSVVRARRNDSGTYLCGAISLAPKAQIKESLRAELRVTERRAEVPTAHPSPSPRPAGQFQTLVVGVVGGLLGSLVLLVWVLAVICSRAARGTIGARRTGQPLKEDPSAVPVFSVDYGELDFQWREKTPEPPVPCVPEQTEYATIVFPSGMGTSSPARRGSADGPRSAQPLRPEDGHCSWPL

This experiment addresses T1, human PD-1 / PD-L1-Ig binding on Jurkat cell line over-expressing human PD-1 (Jurkat-PD-1) (Homo sapiens, UniProt Q15116).
T1 construct: expressed in transfected cells; host or cells: Jurkat
As to the kind of experiment: Jurkat-PD-1 Cell Binding High-Content Screening Assay (CBA). It is filed as cell-based. Particulars: Jurkat-PD-1 cells, PE-labeled PD-L1-Ig 20 nM final; read-out: Jurkat HPD1_PDL1 IC50. In outline:
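Read-out: high-content imaging of PE-tagged PD-L1-Ig bound to Jurkat cells overexpressing human PD-1, after fixation with 4% paraformaldehyde and Hoechst 33342 nuclear staining. Ligand was used at 20 nM final for 1 hour, after a 2 h compound exposure at 37° C in serum-containing DMEM.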
Consider `Cc1cccc(C[C@@H]2NC(=O)[C@H](CC(=O)O)NC(=O)[C@H](Cc3ccc(OCC(=O)O)cc3)NC(=O)[C@H](C(C)O)NC(=O)CSC[C@@H](C(=O)N[C@@H](CCN)C(N)=O)NC(=O)[C@H](CO)NC(=O)[C@H](C(C)(C)O)NC(=O)[C@H](CC3CCCCC3)NC(=O)[C@H](CCN)NC(=O)[C@@H](CC(C)C)NC(=O)[C@H](CCCN)NC(=O)[C@H](Cc3ccc(O)cc3)NC(=O)[C@H](Cc3ccc(-c4ccccc4)cc3)NC(=O)[C@H](Cc3ccc(C(N)=O)cc3)NC2=O)c1` (stereo partly drawn) [Compound 2633] ({CH2CO}-[Thr(3ξ)]Y(Carboxymethyl)D[Phe(3-Me)][Phe(4-CONH2)][Bip]Y[Orn][dL][Dab][Cha][Val(3-OH)]SC[Dab]-NH2; thioether N-14), for which the IC50 is 4 nM.

As for `Cc1cccc(C[C@@H]2NC(=O)[C@H](CC(=O)O)NC(=O)[C@H](Cc3ccc(OCC(=O)O)cc3)NC(=O)[C@H](C(C)O)NC(=O)CSC[C@@H](C(=O)N[C@@H](CCN)C(N)=O)NC(=O)[C@H](CO)NC(=O)[C@H](C(C)(C)O)NC(=O)[C@H](CC3CCCCC3)NC(=O)[C@H](CCN)NC(=O)[C@@H](CC(C)C)NC(=O)[C@H](CCCN)NC(=O)[C@H](Cc3ccc(OCC(=O)O)cc3)NC(=O)[C@H](Cc3ccc(-c4ccccc4)cc3)NC(=O)[C@H](Cc3ccc(C(=O)O)cc3)NC2=O)c1` (stereo partly drawn) [Compound 2634] ({CH2CO}-[Thr(3ξ)]Y(Carboxymethyl)D[Phe(3-Me)][Phe(4-COOH)][Bip]Y(Carboxymethyl)[Orn][dL][Dab][Cha][Val(3-OH)]SC[Dab]-NH2; thioether N-14), the half-maximal inhibitory concentration (IC50) amounted to 4.7 nM.

With `Cc1cccc(C[C@@H]2NC(=O)[C@H](CC(=O)O)NC(=O)[C@H](Cc3ccc(C(=O)O)cc3)NC(=O)[C@H](C(C)O)NC(=O)CSC[C@@H](C(=O)N[C@@H](CCN)C(N)=O)NC(=O)[C@H](CO)NC(=O)[C@H](C(C)(C)O)NC(=O)[C@H](CC3CCCCC3)NC(=O)[C@H](CCN)NC(=O)[C@@H](CC(C)C)NC(=O)[C@H](CCCN)NC(=O)[C@H](Cc3ccc(OCC(=O)O)cc3)NC(=O)[C@H](Cc3ccc(-c4ccccc4)cc3)NC(=O)[C@H](Cc3ccc(C(=O)O)cc3)NC2=O)c1` (stereo partly drawn) [Compound 2635] ({CH2CO}-[Thr(3ξ)][Phe(4-COOH)]D[Phe(3-Me)][Phe(4-COOH)][Bip]Y(Carboxymethyl)[Orn][dL][Dab][Cha][Val(3-OH)]SC[Dab]-NH2; thioether N-14), the IC50 came to 4.5 nM.

As to `Cc1cccc(C[C@@H]2NC(=O)[C@H](CC(=O)O)NC(=O)[C@H](Cc3ccc(C(N)=O)cc3)NC(=O)[C@H](Cc3ccncc3)NC(=O)CSC[C@@H](C(=O)N[C@@H](CCN)C(N)=O)NC(=O)[C@H](CO)NC(=O)[C@H](C(C)(C)O)NC(=O)[C@H](CC3CCCCC3)NC(=O)[C@H](CCN)NC(=O)[C@@H](CC(C)C)NC(=O)[C@H](CCCN)NC(=O)[C@H](Cc3ccc(OCC(=O)O)cc3)NC(=O)[C@H](Cc3ccc(-c4ccccc4)cc3)NC(=O)[C@H](Cc3ccc(OCC(=O)O)cc3)NC2=O)c1` [Compound 2636] ({CH2CO}-[4Pal][Phe(4-CONH2)]D[Phe(3-Me)]Y(Carboxymethyl)[Bip]Y(Carboxymethyl)[Orn][dL][Dab][Cha][Val(3-OH)]SC[Dab]-NH2; thioether N-14), the IC50 turned out to be 4.9 nM.

Take `CC(C)C[C@H]1NC(=O)[C@H](CCCN)NC(=O)[C@H](CCCNC(N)=O)NC(=O)[C@H](Cc2ccc(-c3ccccc3)cc2)NC(=O)[C@H](C(C)C)NC(=O)[C@H](Cc2c[nH]c3ccccc23)NC(=O)[C@H](CC(=O)O)NC(=O)[C@H](Cc2ccc(OCC(=O)O)cc2)NC(=O)[C@H](CCN)NC(=O)CSC[C@@H](C(=O)N[C@@H](CCN)C(N)=O)NC(=O)[C@H](C(C)O)NC(=O)[C@H](C(C)C)NC(=O)[C@H](CC2CCCCC2)NC(=O)[C@H](CCN)NC1=O` (stereo partly drawn) [Compound 2638] ({CH2CO}-[Dab]Y(Carboxymethyl)DWV[Bip][Cit][Orn][dL][Dab][Cha]V[Thr(3ξ)]C[Dab]-NH2; thioether N-14): the IC50 was 16.1 nM.

Consider `Cc1cccc(C[C@@H]2NC(=O)[C@H](CC(=O)O)NC(=O)[C@H](Cc3ccc(OCC(=O)O)cc3)NC(=O)[C@H](CCN)NC(=O)CSC[C@@H](C(=O)N[C@@H](CCCN)C(N)=O)NC(=O)[C@H](C(C)O)NC(=O)[C@H](C(C)C)NC(=O)[C@H](CC3CCCCC3)NC(=O)[C@H](CCN)NC(=O)[C@@H](CC(C)C)NC(=O)[C@H](CCCN)NC(=O)[C@H](CCCNC(N)=O)NC(=O)[C@H](Cc3ccc(-c4ccccc4)cc3)NC(=O)[C@H](C(C)C)NC2=O)c1` (stereo partly drawn) [Compound 2639] ({CH2CO}-[Dab]Y(Carboxymethyl)D[Phe(3-Me)]V[Bip][Cit][Orn][dL][Dab][Cha]V[Thr(3ξ)]C[Orn]-NH2; thioether N-14), for which the IC50 was found to be 13.6 nM.

Regarding `Cc1cccc(C[C@@H]2NC(=O)[C@H](CC(=O)O)NC(=O)[C@H](Cc3ccc(OCC(=O)O)cc3)NC(=O)[C@H](C(C)O)NC(=O)CSC[C@@H](C(=O)N[C@H](CC(N)=O)C(N)=O)NC(=O)[C@H](C(C)O)NC(=O)[C@H](C(C)C)NC(=O)[C@H](CC3CCCCC3)NC(=O)[C@H](CCN)NC(=O)[C@@H](CC(C)C)NC(=O)[C@H](CCCN)NC(=O)[C@H](Cc3ccc(OCC(=O)O)cc3)NC(=O)[C@H](Cc3ccc(-c4ccccc4)cc3)NC(=O)[C@H](Cc3ccc(OCC(=O)O)cc3)NC2=O)c1` (stereo partly drawn) [Compound 2640] ({CH2CO}-[Thr(3ξ)]Y(Carboxymethyl)D[Phe(3-Me)]Y(Carboxymethyl)[Bip]Y(Carboxymethyl)[Orn][dL][Dab][Cha]V[Thr(3ξ)]C[dN]-NH2; thioether N-14), the IC50 was determined as 35 nM.

Regarding `Cc1cccc(C[C@@H]2NC(=O)[C@H](CC(=O)O)NC(=O)[C@H](Cc3ccc(OCC(=O)O)cc3)NC(=O)[C@H](Cc3ccncc3)NC(=O)CSC[C@@H](C(=O)N[C@@H](CCN)C(N)=O)NC(=O)[C@H](CO)NC(=O)[C@H](C(C)(C)O)NC(=O)[C@H](CC3CCCCC3)NC(=O)[C@H](CCN)NC(=O)[C@@H](CC(C)C)NC(=O)[C@H](CCC(N)=O)NC(=O)[C@H](Cc3ccc(OCC(=O)O)cc3)NC(=O)[C@H](Cc3ccc(-c4ccccc4)cc3)NC(=O)[C@H](Cc3ccc(OCC(=O)O)cc3)NC2=O)c1` [Compound 2642] ({CH2CO}-[4Pal]Y(Carboxymethyl)D[Phe(3-Me)]Y(Carboxymethyl)[Bip]Y(Carboxymethyl)Q[dL][Dab][Cha][Val(3-OH)]SC[Dab]-NH2; thioether N-14), the IC50 amounted to 3.5 nM.

For `Cc1cccc(C[C@@H]2NC(=O)[C@H](CC(=O)O)NC(=O)[C@H](Cc3ccc(OCC(=O)O)cc3)NC(=O)[C@H](Cc3ccncc3)NC(=O)CSC[C@@H](C(=O)N[C@@H](CCN)C(N)=O)NC(=O)[C@H](CO)NC(=O)[C@H](C(C)(C)O)NC(=O)[C@H](CC3CCCCC3)NC(=O)[C@H](CCN)NC(=O)[C@@H](CC(C)C)NC(=O)[C@H](CCC(N)=O)NC(=O)[C@H](Cc3ccc(C(=O)O)cc3)NC(=O)[C@H](Cc3ccc(-c4ccccc4)cc3)NC(=O)[C@H](Cc3ccc(C(=O)O)cc3)NC2=O)c1` [Compound 2643] ({CH2CO}-[4Pal]Y(Carboxymethyl)D[Phe(3-Me)][Phe(4-COOH)][Bip][Phe(4-COOH)]Q[dL][Dab][Cha][Val(3-OH)]SC[Dab]-NH2; thioether N-14), the IC50 was found to be 7.3 nM.

As for `Cc1cccc(C[C@@H]2NC(=O)[C@H](CC(=O)O)NC(=O)[C@H](Cc3ccc(OCC(=O)O)cc3)NC(=O)[C@H](CCN)NC(=O)CSC[C@@H](C(=O)N[C@@H](CCN)C(N)=O)NC(=O)[C@H](Cc3cnc[nH]3)NC(=O)[C@H](C(C)C)NC(=O)[C@H](CC3CCCCC3)NC(=O)[C@H](CCN)NC(=O)[C@@H](CC(C)C)NC(=O)[C@H](CCCN)NC(=O)[C@H](Cc3ccc(OCC(=O)O)cc3)NC(=O)[C@H](Cc3ccc(-c4ccccc4)cc3)NC(=O)[C@H](C(C)C)NC2=O)c1` [Compound 2644] ({CH2CO}-[Dab]Y(Carboxymethyl)D[Phe(3-Me)]V[Bip]Y(Carboxymethyl)[Orn][dL][Dab][Cha]VHC[Dab]-NH2; thioether N-14), the half-maximal inhibitory concentration (IC50) was 13.6 nM.

Turning to `Cc1cccc(C[C@@H]2NC(=O)[C@H](CC(=O)O)NC(=O)[C@H](Cc3ccc(OCC(=O)O)cc3)NC(=O)[C@H](Cc3ccncc3)NC(=O)CSC[C@@H](C(=O)N[C@@H](CCN)C(N)=O)NC(=O)[C@H](CO)NC(=O)[C@H](C(C)(C)O)NC(=O)[C@H](CC3CCCCC3)NC(=O)[C@H](Cc3cnc[nH]3)NC(=O)[C@@H](CC(C)C)NC(=O)[C@H](CCCN)NC(=O)[C@H](Cc3ccc(OCC(=O)O)cc3)NC(=O)[C@H](Cc3ccc(-c4ccccc4)cc3)NC(=O)[C@H](Cc3ccc(OCC(=O)O)cc3)NC2=O)c1` [Compound 2645] ({CH2CO}-[4Pal]Y(Carboxymethyl)D[Phe(3-Me)]Y(Carboxymethyl)[Bip]Y(Carboxymethyl)[Orn][dL]H[Cha][Val(3-OH)]SC[Dab]-NH2; thioether N-14), the IC50 was determined as 11.7 nM.

With `Cc1cccc(C[C@@H]2NC(=O)[C@H](CC(=O)O)NC(=O)[C@H](Cc3ccc(OCC(=O)O)cc3)NC(=O)[C@H](Cc3ccco3)NC(=O)CSC[C@@H](C(=O)N[C@@H](CCN)C(N)=O)NC(=O)[C@H](Cc3cnc[nH]3)NC(=O)[C@H](C(C)(C)O)NC(=O)[C@H](CC3CCCCC3)NC(=O)[C@H](CCN)NC(=O)[C@@H](CC(C)C)NC(=O)[C@H](CCCN)NC(=O)[C@H](Cc3ccc(OCC(=O)O)cc3)NC(=O)[C@H](Cc3ccc(-c4ccccc4)cc3)NC(=O)[C@H](Cc3ccc(OCC(=O)O)cc3)NC2=O)c1` [Compound 2646] ({CH2CO}-[Ala(2-furyl)]Y(Carboxymethyl)D[Phe(3-Me)]Y(Carboxymethyl)[Bip]Y(Carboxymethyl)[Orn][dL][Dab][Cha][Val(3-OH)]HC[Dab]-NH2; thioether N-14), the IC50 turned out to be 8.3 nM.

As a reminder, the IC50 is the concentration at which inhibition is half-maximal.

Source of the values: patent US20250163104A1, “MACROCYCLIC IMMUNOMODULATORS” (priority 2021, published 2025).
